Test results from patent US20200237746A1, “HSP90 TARGETED CONJUGATES AND PARTICLE FORMULATIONS THEREOF” (TARVEDA THERAPEUTICS, INC., priority 2017, published 2020).
Where “and” joins values, the source holds several entries; their conditions need not be identical. Equal entries are not always repeated.

Key:
Log P of Compound A = format: physicochemical; settings: approximate value
in vivo = settings: rat, 1 mg/kg
Method: In addition, rat plasma concentrations of Compound A and Compound A in NP04 formulation were measured over time.

[1] = system: NCI-H69 xenograft model (small cell lung cancer); assay: Efficacy in NCI-H69 xenograft model: tumor volumes and tumor growth inhibition; format: in vivo, mice
Text: Efficacies of Compound A alone or formulated in nanoparticles were studied with NCI-H69 xenograft model (small cell lung cancer).

[2] = Compound A 25 mg/kg days 1 and 8, Day 5
[3] = Compound A 25 mg/kg days 1 and 8, Day 8
[4] = Compound A 25 mg/kg days 1 and 8, Day 16
[5] = Compound A 25 mg/kg days 1 and 8, Day 19
[6] = Compound A 50 mg/kg days 1 and 8, Day 5, 50 mg/kg
[7] = Compound A 50 mg/kg days 1 and 8, Day 8, 50 mg/kg
[8] = Compound A 50 mg/kg days 1 and 8, Day 11, 50 mg/kg
[9] = Compound A 50 mg/kg days 1 and 8, Day 16, 50 mg/kg
[10] = Compound A 50 mg/kg days 1 and 8, Day 19, 50 mg/kg
[11] = Compound A 50 mg/kg days 1 and 8, Day 22, 50 mg/kg
[12] = Compound A 150 mg/kg days 1 and 8, Day 5, 150 mg/kg
[13] = Compound A 150 mg/kg days 1 and 8, Day 8, 150 mg/kg
[14] = Compound A 150 mg/kg days 1 and 8, Day 11
[15] = Compound A 150 mg/kg days 1 and 8, Day 11, 150 mg/kg
[16] = Compound A 150 mg/kg days 1 and 8, Day 16, 150 mg/kg
[17] = Compound A 150 mg/kg days 1 and 8, Day 19, 150 mg/kg
[18] = Compound A 150 mg/kg days 1 and 8, Day 22, 150 mg/kg

logP (Log P of Compound A): ~6.7
AUC(0-inf) (in vivo): 3.93 µM·h
AUC(0-t) (in vivo): 3.93 µM·h
Cmax (in vivo): 11.8 µM
Vd (in vivo): 0.0786 L/kg
clearance (in vivo): 4.82 mL/min/kg
half-life (in vivo): 59.1 min
SMILES: CCc1c2c(nc3ccc(OC(=O)N4CCC(CCn5ccc6cc(-n7c(O)nnc7-c7cc(C(C)C)c(O)cc7O)ccc65)CC4)cc13)-c1cc3c(c(=O)n1C2)COC(=O)[C@]3(O)CC [Compound A, (S)-4,11-diethyl-4-hydroxy-3,14-dioxo-3,4,12,14-tetrahydro-1H-pyrano[3′,4′:6,7]indolizino[1,2-b]quinolin-9-yl 4-(2-(5-(3-(2,4-dihydroxy-5-isopropylphenyl)-5-hydroxy-4H-1,2,4-triazol-4-yl)-1H-indol-1-yl)ethyl)piperidine-1-carboxylate]
TV Mean ([1]; Compound A 25 mg/kg days 1 and 8, Day 1): 273.4 mm3
TGI % [1, 2]: 2.8%
TV Mean [1, 2]: 390.6 mm3
TGI % [1, 3]: 24.9%
TV Mean [1, 3]: 423.8 mm3
TV Mean ([1]; Compound A 25 mg/kg days 1 and 8, Day 11): 383.2 mm3
TGI % ([1]; Compound A 25 mg/kg days 1 and 8, Day 11, 25 mg/kg): 47%
TGI % [1, 4]: 69.3%
TV Mean [1, 4]: 345.4 mm3
TGI % [1, 5]: 72.2%
TV Mean [1, 5]: 387.4 mm3
TV Mean ([1]; Compound A 25 mg/kg days 1 and 8, Day 22): 510.4 mm3
TGI % ([1]; Compound A 25 mg/kg days 1 and 8, Day 22, 25 mg/kg): 70%
TV Mean ([1]; Compound A 25 mg/kg days 1 and 8, Day 26): 654.4 mm3
TV Mean ([1]; Compound A 25 mg/kg days 1 and 8, Day 31): 866.4 mm3
TV Mean ([1]; Compound A 50 mg/kg days 1 and 8, Day 1): 273.3 mm3
TV individual animal ([1]; Compound A 50 mg/kg days 1 and 8, Day 1, 50 mg/kg): 222 mm3 and 255 mm3
TV Mean ([1]; Compound A 50 mg/kg days 1 and 8, Day 5): 360.1 mm3
TGI % [1, 6]: 10.42% and 10.4%
TV individual animal [1, 6]: 293 mm3
TV Mean ([1]; Compound A 50 mg/kg days 1 and 8, Day 8): 377.9 mm3
TGI % [1, 7]: 33.02% and 33%
TV individual animal [1, 7]: 336 mm3
TV Mean ([1]; Compound A 50 mg/kg days 1 and 8, Day 11): 267.8 mm3
TGI % [1, 8]: 62.98% and 63%
TV individual animal [1, 8]: 202 mm3
TV Mean ([1]; Compound A 50 mg/kg days 1 and 8, Day 16): 166.4 mm3
TGI % [1, 9]: 85.23% and 85.2%
TV individual animal [1, 9]: 136 mm3
TV Mean ([1]; Compound A 50 mg/kg days 1 and 8, Day 19): 116.6 mm3
TGI % [1, 10]: 91.64% and 91.6%
TV individual animal [1, 10]: 103 mm3
TV Mean ([1]; Compound A 50 mg/kg days 1 and 8, Day 22): 125.6 mm3
TGI % [1, 11]: 92.63% and 92.6%
TV individual animal [1, 11]: 91 mm3
TV Mean ([1]; Compound A 50 mg/kg days 1 and 8, Day 26): 165.7 mm3
TV individual animal ([1]; Compound A 50 mg/kg days 1 and 8, Day 26, 50 mg/kg): 116 mm3
TV Mean ([1]; Compound A 50 mg/kg days 1 and 8, Day 31): 318.9 mm3
TV individual animal ([1]; Compound A 50 mg/kg days 1 and 8, Day 31, 50 mg/kg): 256 mm3
TV Mean ([1]; Compound A 150 mg/kg days 1 and 8, Day 1): 273.6 mm^3
TV individual animal ([1]; Compound A 150 mg/kg days 1 and 8, Day 1, 150 mg/kg): 218 mm^3 and 266 mm^3 and 269 mm^3 and 295 mm^3 and 302 mm^3 and 335 mm^3 and 339 mm^3 and 353 mm^3 and 144 mm^3 and 215 mm^3
TV Mean ([1]; Compound A 150 mg/kg days 1 and 8, Day 5): 353 mm^3
TGI % [1, 12]: 12.19% and 12.9%
TV individual animal [1, 12]: 291 mm^3 and 370 mm^3 and 363 mm^3 and 417 mm^3 and 376 mm^3 and 367 mm^3 and 406 mm^3 and 568 mm^3 and 147 mm^3 and 225 mm^3
TV Mean ([1]; Compound A 150 mg/kg days 1 and 8, Day 8): 343.8 mm^3
TGI % [1, 13]: 39.06% and 39.1%
TV individual animal [1, 13]: 275 mm^3 and 362 mm^3 and 281 mm^3 and 413 mm^3 and 354 mm^3 and 393 mm^3 and 397 mm^3 and 595 mm^3 and 168 mm^3 and 200 mm^3
TGI % [1, 14]: 65.44%
TV Mean [1, 14]: 250 mm^3
TGI % [1, 15]: 65.4%
TV individual animal [1, 15]: 189 mm^3 and 236 mm^3 and 217 mm^3 and 318 mm^3 and 264 mm^3 and 322 mm^3 and 285 mm^3 and 436 mm^3 and 99 mm^3 and 134 mm^3
TV Mean ([1]; Compound A 150 mg/kg days 1 and 8, Day 16): 109.7 mm^3
TGI % [1, 16]: 90.26% and 90.3%
TV individual animal [1, 16]: 89 mm^3 and 108 mm^3 and 90 mm^3 and 132 mm^3 and 123 mm^3 and 138 mm^3 and 135 mm^3 and 173 mm^3 and 46 mm^3 and 63 mm^3
TV Mean ([1]; Compound A 150 mg/kg days 1 and 8, Day 19): 77.9 mm^3
TGI % [1, 17]: 94.41% and 94.4%
TV individual animal [1, 17]: 55 mm^3 and 100 mm^3 and 85 mm^3 and 95 mm^3 and 74 mm^3 and 121 mm^3 and 39 mm^3 and 135 mm^3 and 33 mm^3 and 42 mm^3
TV Mean ([1]; Compound A 150 mg/kg days 1 and 8, Day 22): 63.5 mm^3
TGI % [1, 18]: 96.27% and 96.3%
TV individual animal [1, 18]: 46 mm^3 and 64 mm^3 and 72 mm^3 and 85 mm^3 and 66 mm^3 and 89 mm^3 and 71 mm^3 and 68 mm^3 and 27 mm^3 and 47 mm^3
TV Mean ([1]; Compound A 150 mg/kg days 1 and 8, Day 26): 51.8 mm^3
TV individual animal ([1]; Compound A 150 mg/kg days 1 and 8, Day 26, 150 mg/kg): 45 mm^3 and 52 mm^3 and 68 mm^3 (2×) and 61 mm^3 and 83 mm^3 and 77 mm^3 and 41 mm^3 and 4 mm^3 and 19 mm^3
TV Mean ([1]; Compound A 150 mg/kg days 1 and 8, Day 31): 13.5 mm^3
TV individual animal ([1]; Compound A 150 mg/kg days 1 and 8, Day 31, 150 mg/kg): 11 mm^3 and 17 mm^3 and 25 mm^3 and 6 mm^3 and 3 mm^3 and 44 mm^3 and 2 mm^3 and 27 mm^3 and 0 mm^3 (2×)
